In article PMC7961763, “Semi-Synthesis of Harringtonolide Derivatives and Their Antiproliferative Activity” (Molecules, 2021):
Read-outs that look alike come from different tables or passages of the source.

How the values were obtained:
[1] = system: human normal hepatic L-02 cells; assay: MTT assay, cytotoxicity on normal L-02 cells; type: cell-based; conditions: for IC50: Homo sapiens, read-out: IC50 L-02; for SI (selectivity index): IC50 (L-02)/IC50 (Huh-7)
Experimental: The selectivity index is crucial for drug development, because it could mediate side effects, including tissues toxicity. Therefore, according to cytotoxic activity results, compounds 6 and 10 with potent cytotoxicity in Huh-7 cells were selected to investigate the selectivity between normal and cancer cells. These two compounds were tested on human normal hepatic L-02 cells with HO as control.
(§1) HCT-116 (Human colon cancer cell line), A375 (human melanoma cancer cell line), A-549 (human lung adenocarcinoma cell line), Huh-7 (human hepatoma cancer cell line), and L-02 (normal hepatic cell line) were purchased from the Cell Bank of Shanghai Institute of Biochemistry and Cell Biology, Chinese Academy of Sciences (Shanghai, China). The cells were cultured in Dulbecco’s modified Eagle medium (DMEM; NY, USA), which were all supplemented with 10% fetal bovine serum (FBS; NY, USA) at 37 °C with 5% CO2.
(§2) The cytotoxic activity was evaluated using the MTT assay. Briefly, cells were seeded in 96-well plates at a density of 5 × 10^3 cells/well in 100 μL of DMEM medium at 37 °C for 24 h. Stock solutions of test compounds were prepared in DMSO at concentration of 50 mM, and twofold serial dilution with a culture medium was performed to obtain appropriate concentrations right before the assay. After that, the cells were incubated with synthetic derivatives or cisplatin as a positive control at the various concentrations (0.78125-50 μM) for 48 h. Then, 20 μL of 3-(4,5-Dimethylthiazol-2-yl)-2,5-diphenyltetrazolium bromide (MTT, Aladdin, Shanghai, China) solution (5 mg/mL in PBS) was added, and then the cells were incubated at 37 °C for an additional 4 h. The supernatant was removed, and 150 μL of dimethyl sulfoxide was added to dissolve the MTT formazan. The optical density (OD) was measured on a microplate reader (SpectraMax Plus 384, Molecular Devices, Sunnyvale, CA, USA) at a wavelength of 570 nm. The cytotoxic activity was expressed as the IC50 values. The above tests were repeated three times in parallel. Vehicle DMSO (0.1%) was used as a negative control.

[2] = system: A375 (human melanoma cancer cell line); assay: MTT assay, cytotoxicity against A375; type: cell-based; conditions: read-out: IC50 A375
Experimental: (§3) All the synthesized derivatives of HO were tested for their antiproliferative activity against four human cancer cell lines, including the HCT-116, A375, A-549, and Huh-7 cell lines, using the MTT assay. Cisplatin was used as a positive control, while lead compound HO (1) was also included in the study for comparison.
as §1, §2

[3] = system: A-549 (human lung adenocarcinoma cell line); assay: MTT assay, cytotoxicity against A549; type: cell-based; conditions: read-out: IC50 A549
Experimental: as §3, §1, §2

[4] = system: HCT-116 (human colon cancer cell line); assay: MTT assay, cytotoxicity against HCT-116; type: cell-based; conditions: read-out: IC50 HCT-116
Experimental: as §3, §1, §2

[5] = system: Huh-7 (human hepatoma cancer cell line); assay: MTT assay, cytotoxicity against Huh-7; type: cell-based; conditions: read-out: IC50 Huh-7
Experimental: as §3, §1, §2

[6] = design: method as in PMID 18523925, PMID 29182349, PMID 31184894; conditions: compared with HO; cited from earlier work
[7] = L02, MTT, 48 h, normal hepatic L-02 cells

## Cc1cc(=O)cc2c3c1C1OC4C5OC(=O)C(C=C2)(C4C)C3C15 [Compound 6, (3R,4aR,10aS,11S)-5,11-dimethyl-2a,3,4a,10a1-tetrahydro-1H-2,4-dioxa-3,10a methanocyclohepta[bc]cyclopenta[jk]acenaphthylene-1,7(2a1H)-dione]
[1]; [7]
  IC50: 67.2 ± 0.43 µM
[1]
  SI (selectivity index): 56.5
[1]; SI between Huh-7 and L-02, compared with HO
  selectivity index relative to HO: 20 times
[2]; Homo sapiens, A-375, 48 h, MTT, 48 h, A375 cells
  IC50: 4.85 ± 0.42 µM
[3]; Homo sapiens, A549, 48 h, MTT, 48 h, A549 cells
  IC50: 5.47 ± 0.13 µM
[4]; Homo sapiens, HCT-116, 48 h, MTT, 48 h, HCT-116 cells
  IC50: 0.86 ± 0.05 µM
[5]; Homo sapiens, Huh-7, 48 h, MTT, 48 h, Huh-7 cells
  IC50: 1.19 ± 0.08 µM

## Cc1cc(=O)cc2c3c1C1OC4C5OC(=O)C(CC2O)(C4C)C3C15 [Compound 10, (3R,4aR,9S,10aS,11S)-9-hydroxy-5,11-dimethyl-2a,3,4a,9,10,10a1-hexahydro-1H-2,4-dioxa-3,10a-methanocyclohepta[bc]cyclopenta[jk]acenaphthylene-1,7(2a1H)-dione]
[1]; [7]
  IC50: 22.3 ± 1.11 µM
[1]
  SI (selectivity index): 3.5
[2]; MTT, 48 h, A375 cells
  IC50: 5.79 ± 1.26 µM
[3]; MTT, 48 h, A549 cells
  IC50: 8.25 ± 0.2 µM
[4]; MTT, 48 h, HCT-116 cells
  IC50: 2.29 ± 0.27 µM
[5]; MTT, 48 h, Huh-7 cells
  IC50: 6.34 ± 0.32 µM

## Cc1cc(=O)cc2c3c1[C@@H]1O[C@H]4[C@@H]5OC(=O)[C@](CC2)([C@@H]4C)[C@H]3[C@@H]51 [HO (1), Harringtonolide]
[1]; L02, 48 h
  IC50: 3.46 ± 0.36 µM
[1]
  SI (selectivity index): 2.8
[2]; Homo sapiens, A-375, 48 h
  IC50: 1.34 ± 0.23 µM
[3]; Homo sapiens, A549, 48 h
  IC50: 1.67 ± 0.23 µM
[4]; Homo sapiens, HCT-116, 48 h
  IC50: 0.61 ± 0.03 µM
[5]; Homo sapiens, Huh-7, 48 h
  IC50: 1.25 ± 0.08 µM

## CC1=C[C@@H](O)[C@H](O)[C@@]2(O)CCC34C(=O)OC5C6C3C2=C1[C@@H]6O[C@@H]5C4C (some centres unmarked) [fortalpinoid K]
[6]
  cytotoxic activities (result in words): losing of cytotoxic activities
